Literature values in US20070065542A1 (Board Of Regents, The University Of Texas System, priority 2005, published 2007).
Where two headings read alike, the source gives them in different places. Blank lines part the entries; values can stand above or below the compound they belong to.

Key:
[1] = soluble complexes of calcium, from literature
[2] = soluble iron complexes and reference complexes, known values
[3] = dissociation constant
[4] = very high concentration

Stability constant [1]: 2.19
Structure (SMILES): O=C([O-])CC(O)C(=O)[O-].[Ca+2] (stereo not drawn) [CaMal]

Structure (SMILES): O=C1O[C@H]([C@@H](O)CO)C(O)=C1O.[Fe+2] [Ferrous monohydrogen ascorbate]
Stability constant [2]: 1.30

pK1 [3]: 6.1 | pK2 [3]: 10.3
Structure (SMILES): O=C(O)O [Carbonate anion]

Structure (SMILES): [Cl][Fe]([Cl])[Cl] [ferric chloride]
pH at which precipitation of iron occurred [4]: 3-4

pK1 [3]: 3.87
Structure (SMILES): CC(O)C(=O)O (stereo not drawn) [Lactic Acid]
